The text below walks through data of patent publication US9073862B2, “Substituted 2-oxy-quinoline-3-carboxamides as KCNQ2/3 modulators” (Grünenthal GmbH, priority 2010, dated 2015).

One test concerns the target T1, KCNQ2/3 channels (Homo sapiens, UniProt O43525+O43526).
T1 construct: expressed in transfected cells; host or cells: CHO-K1
Kind of test: Fluorescence assay using a voltage sensitive dye (fluorimetry). The format is cell-based. The following applies: CHO-K1 cells expressing KCNQ2/3 channels; for Emax: relative to retigabine = 100%, read-out: Fluorimetry % efficacy (retigabine = 100%). The procedure: Method I. Fluorescence Assay Using a Voltage Sensitive Dye (Fluorimetry)
[…] CHO-K1 cells expressing KCNQ2/3 channels are cultivated adherently at 37° C., 5% CO2 and 95% humidity in cell culture bottles (e.g. 80 cm^2 TC flasks, Nunc) with DMEM-high glucose (Sigma Aldrich, D7777) including 10% FCS (PAN Biotech, e.g. 3302-P270521) or alternatively MEM Alpha Medium (1×, liquid, Invitrogen, #22571), 10% fetal calf serum (FCS) (Invitrogen, #10270-106, heat-inactivated) and the necessary selection antibiotics.
Before being sown out for the measurements, the cells are washed with 1×DPBS buffer Ca^2+/Mg^2+-free (e.g. Invitrogen, #14190-094) and detached from the bottom of the culture vessel by using Accutase (PAA Laboratories, #L11-007) (incubation with Accutase for 15 min at 37° C.). The cell number is determined using a CASY™ cell counter (TCC, Schärfe System). Depending on the optimal density for each individual cell line, 20,000-30,000 cells/well/100 μl are seeded onto 96-well Corning™ CellBIND™ assay plates (Flat Clear Bottom Black Polystyrene Microplates, #3340). Freshly seeded cells are then left to settle for one hour at room temperature, followed by incubation for 24 hours at 37° C., 5% CO2 and 95% humidity.
The voltage-sensitive fluorescent dye from the Membrane Potential Assay Kit (Red™ Bulk format part R8123 for FLIPR, MDS Analytical Technologies™) is prepared by dissolving the contents of one vessel Membrane Potential Assay Kit Red Component A in 200 ml of extracellular buffer (ES buffer, 120 mM NaCl, 1 mM KCl, 10 mM HEPES, 2 mM CaCl2, 2 mM MgCl2, 10 mM glucose; pH 7.4). After removal of the nutrient medium, the cells are washed once with 200 μl of ES buffer, then loaded for 45 min at room temperature in 100 μl of dye solution in the dark.
Fluorescence measurements are carried out in a BMG Labtech FLUOstar™, BMG Labtech NOVOstar™ or BMG Labtech POLARstar™ instrument (525 nm excitation, 560 nm emission, Bottom Read mode). After incubation with the dye, 50 μl of the test substances in the desired concentrations, or 50 μl of ES buffer for control purposes, are applied to the wells of the assay plate and incubated for 30 min at room temperature while being shielded from light. The fluorescence intensity of the dye is then measured for 5 min and the fluorescence value F1 of each well is thus determined at a given, constant time. 15 μl of a KCl solution are then added to each well (final concentration of potassium ions 92 mM). The change in fluorescence intensity is subsequently monitored until all the relevant values have been obtained (mainly 5-30 min). At a given time post KCl application, a fluorescence value F2 is determined, in this case at the time of the fluorescence peak.
For calculation, the fluorescence intensity F2 is corrected for the fluorescence intensity F1, and the activity (ΔF/F) of the target compound on the potassium channel is determined as follows:
In order to determine whether a substance has agonistic activity,
[formula] can be related to
[formula] of control wells.
[formula] is determined by adding to the well only the buffer solution instead of the test substance, determining the value F1K of the fluorescence intensity, adding the potassium ions as described above, and measuring a value F2K of the fluorescence intensity. F2K and F1K are then calculated as follows: […]
A substance has an agonistic activity on the potassium channel if
[formula] is greater than
Independently of the comparison of
[formula] it is possible to conclude that a target compound has agonistic activity if
[formula] increases dose dependently.
Calculations of EC50 and IC50 values are carried out with the aid of ‘Prism v4.0’ software (Graph Pad Software™).

The subject of test [1] is withdrawal reflex of the rat tail (tail flick) in response to a radiant heat beam. Kind of test: Low-intensity tail flick test (rat). Format: in vivo. As to conditions: po, peroral; for ED50: at time of maximum efficacy. On the procedure:
Method II. Low-Intensity Tail Flick Test (Rat)
In the low-intensity tail flick test, the determination of the antinociceptive effect of the compounds according to the invention towards an acute noxious thermal stimulus is carried out by measuring the withdrawal reflex of the rat tail (tail flick) in response to a radiant heat beam (analgesia meter; model 2011 of the company Rhema Labortechnik, Hofheim, Germany) according to the method described by D'Amour and Smith (J. Pharm. Exp. Ther. 72, 74 79 (1941). To this end, the rats were placed in a plexiglas restrainer, and a low-intensity radiant heat beam (48° C.) was focused onto the dorsal surface of the tail root. The stimulus intensity was adjusted to result in a mean pre-drug control withdrawal latency of about 7 s, thus also allowing a supraspinal modulation of the spinally mediated acute nociceptive reflex. A cutoff time of 30 s was applied to avoid tissue damage. Male Sprague-Dawley rats (Janvier, Le Genest St. Isle, Frankreich) with weights of 200-250 g were used. 10 rats were used per group. Before administration of a compound according to the invention, the animals were pre-tested twice in the course of five minutes and the mean of these measurements was calculated as the pre-test mean. The antinociceptive effect was determined at 20, 40 and 60 min after peroral compound administration. The antinociceptive effect was calculated based on the increase in the tail withdrawal latency according to the following formula and is expressed as percentage of the maximum possible effect (MPE [%]): MPE=[(T1−T0)/(T2−T0)]*100
In this, T0 is the control latency time before and T1 the latency time after administration of the compound, T2 is the cutoff time and MPE is the maximum possible effect. Employing variant analysis (repeated measures ANOVA) allowed testing of statistically significant differences between the compounds according to the invention and the vehicle group. The significance level was set to p≦0.05. To determine the dose dependency, the particular compound according to the invention was administered in 3-5 logarithmically increasing doses, including a threshold dose and a maximum effective dose, and the ED50 values were determined with the aid of regression analysis. The ED50 calculation was performed at the time of maximum efficacy (usually 20 min after administration of the compounds).
For orientation: Thermal pain tests record how soon the animal reacts.

Where [2] appears, read: read-out: Low intensity tail flick, rat, peroral, MPE (dose).

As usually defined, the EC50 is the midpoint of the concentration-response curve. Low readings indicate a more potent agent, high ones a less potent agent. The ED50 is the midpoint of the dose-response relation.

With `CCOc1nc2cc(C(F)(F)F)ccc2c(C)c1C(=O)NCc1ccc(F)cc1` [Example 3, 2-ethoxy-N-[(4-fluorophenyl)-methyl]-4-methyl-7-(trifluoromethyl)-quinoline-3-carboxylic acid amide], on KCNQ2/3 channels, the midpoint of the response, the EC50, lay at 39 nM and the Emax was 122%. For the same molecule, the median effective dose (ED50) in test [1] stood at 2.5 mg/kg.
As to `COc1nc2cc(C(F)(F)F)ccc2c(C)c1C(=O)NCc1cccc(F)c1` [Example 4, N-[(3-fluorophenyl)-methyl]-2-methoxy-4-methyl-7-(trifluoromethyl)-quinoline-3-carboxylic acid amide], at KCNQ2/3 channels, the midpoint of the response, the EC50, lay at 73 nM and the Emax was found to be 105%. This molecule also returned a median effective dose (ED50) in test [1] of 6.7 mg/kg.
On to `COc1nc2cc(C(F)(F)F)ccc2c(C)c1C(=O)NCc1ccc(F)cc1` [Example 5, N-[(4-fluorophenyl)-methyl]-2-methoxy-4-methyl-7-(trifluoromethyl)-quinoline-3-carboxylic acid amide], for which, at KCNQ2/3 channels, the concentration for a half-maximal effect (EC50) was found to be 57 nM and the Emax came out at 122%. In test [1] (dose 6.81 mg/kg, read-out: Low intensity tail flick, rat, peroral, MPE (dose)), the inhibition in vivo at 6.81 mg/kg was determined as 34%.
As to `CCOc1nc2cc(C(F)(F)F)ccc2c(C)c1C(=O)NCc1cccc(F)c1` [Example 6, 2-ethoxy-N-[(3-fluorophenyl)-methyl]-4-methyl-7-(trifluoromethyl)-quinoline-3-carboxylic acid amide], on KCNQ2/3 channels, the concentration giving a half-maximal response (EC50) is 58 nM and the Emax turned out to be 132%. Further, in test [1] (setting [2]), the inhibition in vivo at 4.64 mg/kg came to 67%.
For `COCCOc1nc2cc(C(F)(F)F)ccc2c(C)c1C(=O)NCc1cccc(F)c1` [Example 7, N-[(3-fluorophenyl)-methyl]-2-(2-methoxy-ethoxy)-4-methyl-7-(trifluoromethyl)-quinoline-3-carboxylic acid amide], at KCNQ2/3 channels, the EC50 is 96 nM and the Emax was 92%. In addition, in test [1], the ED50 was 10 mg/kg.
For the molecule `COCCOc1nc2cc(C(F)(F)F)ccc2c(C)c1C(=O)NCc1ccc(F)cc1` [Example 8, N-[(4-fluorophenyl)-methyl]-2-(2-methoxy-ethoxy)-4-methyl-7-(trifluoromethyl)-quinoline-3-carboxylic acid amide], at KCNQ2/3 channels, the EC50 turned out to be 143 nM and the Emax came to 94%. The inhibition in vivo at 10 mg/kg in test [1] (dose 10.00 mg/kg, read-out: Low intensity tail flick, rat, peroral, MPE (dose)) turned out to be 22%.
Regarding `Cc1c(C(=O)NCc2cccc(F)c2)c(OC(C)C)nc2cc(C(F)(F)F)ccc12` [Example 10, N-[(3-fluorophenyl)-methyl]-2-isopropoxy-4-methyl-7-(trifluoromethyl)-quinoline-3-carboxylic acid amide], on KCNQ2/3 channels, it took 87 nM to reach a half-maximal effect (EC50) and the Emax was determined as 175%. Also, the ED50 in test [1] worked out at 3.8 mg/kg.
For `CCOc1nc2cc(C(F)(F)F)ccc2c(OC)c1C(=O)NCc1cccc(F)c1` [Example 12, 2-ethoxy-N-[(3-fluorophenyl)-methyl]-4-methoxy-7-(trifluoremethyl)-quinoline-3-carboxylic acid amide], at KCNQ2/3 channels, the midpoint of the response, the EC50, lay at 104 nM and the Emax came to 170%. In addition, the inhibition in vivo at 4.64 mg/kg in test [1] (setting [2]) amounted to 27%.
Take `COc1nc2cc(C(F)(F)F)ccc2c(C)c1C(=O)NCc1cc(F)ccc1O` [Example 44, N-[(5-fluoro-2-hydroxy-phenyl)-methyl]-2-methoxy-4-methyl-7-(trifluoromethyl)-quinoline-3-carboxylic acid amide]: on KCNQ2/3 channels, the midpoint of the response, the EC50, lay at 79 nM and the Emax amounted to 173%.
Turning to `COc1nc2cc(C(F)(F)F)ccc2c(C)c1C(=O)NCc1ccc(O)c(F)c1` [Example 45, N-[(3-fluoro-4-hydroxy-phenyl)-methyl]-2-methoxy-4-methyl-7-(trifluoromethyl)-quinoline-3-carboxylic acid amide], on KCNQ2/3 channels, the 50% effective concentration (EC50) came out at 2060 nM and the Emax stood at 87%.
Take `COc1nc2cc(F)ccc2c(C)c1C(=O)NCc1ccc(F)cc1` [Example 46, 7-fluoro-N-[(4-fluorophenyl)-methyl]-2-methoxy-4-methyl-quinoline-3-carboxylic acid amide]: at KCNQ2/3 channels, the EC50 was 299 nM and the Emax was 59%.
In the case of `COc1nc2cc(F)cc(F)c2c(C)c1C(=O)NCc1cccc(F)c1` [Example 47, 5,7-difluoro-N-[(3-fluorophenyl)-methyl]-2-methoxy-4-methyl-quinoline-3-carboxylic acid amide], the Emax at KCNQ2/3 channels was 43%.
Take `COc1nc2cc(F)c(F)cc2c(C)c1C(=O)NCc1cccc(F)c1` [Example 48, 6,7-difluoro-N-[(3-fluorophenyl)-methyl]-2-methoxy-4-methyl-quinoline-3-carboxylic acid amide]: on KCNQ2/3 channels, the EC50 came to 315 nM and the Emax was found to be 96%.
In the case of `COc1nc2c(F)c(F)ccc2c(C)c1C(=O)NCc1cccc(F)c1` [Example 49, 7,8-difluoro-N-[(3-fluorophenyl)-methyl]-2-methoxy-4-methyl-quinoline-3-carboxylic acid amide], on KCNQ2/3 channels, the midpoint of the response, the EC50, lay at 229 nM and the Emax was found to be 70%.
As for `COc1nc2ccccc2c(C(F)(F)F)c1C(=O)NCc1cccc(F)c1` [Example 51, N-[(3-fluorophenyl)-methyl]-2-methoxy-4-(trifluoromethyl)-quinoline-3-carboxylic acid amide], the Emax at KCNQ2/3 channels worked out at 40%.
`CCOc1nc2ccccc2c(C(F)(F)F)c1C(=O)NCc1cccc(F)c1` [Example 52, 2-ethoxy-N-[(3-fluorophenyl)-methyl]-4-(trifluoromethyl)-quinoline-3-carboxylic acid amide]: at KCNQ2/3 channels, the midpoint of the response, the EC50, lay at 205 nM and the Emax was found to be 67%.
For `CC(C)Oc1nc2ccccc2c(C(F)(F)F)c1C(=O)NCc1cccc(F)c1` [Example 53, N-[(3-fluorophenyl)-methyl]-2-isopropoxy-4-(trifluoromethyl)-quinoline-3-carboxylic acid amide], in that order: 108 nM and 84%.
